Series [1] relates to MM1R subcutaneous tumor. The series can be described thus: MM1R xenograft model. The series is classed as in vivo, SCID/Beige mice. The settings on record: oral gavage five times per week. The procedure: Female SCID/Beige mice at age 4 weeks were housed in ventilated micro-isolator cages (INNOCAGE®IVC, Innovive Inc., San Diego, Calif.) in a controlled climate, fed with sterile high-fat diet (Problab-RMH 2000) ad libitum and provided with sterilized water. All housing and supplies for SCID/Beige mice were sterilized by autoclaving before use. Mice were inspected daily including weekends/holidays by trained animal facility personnel and investigators. All animal procedures were performed under sterile conditions within a biosafety cabinet (for injections) or laminar flow hood (for animal husbandry and non-invasive procedures).
MM1R human MM cells were originally obtained from peripheral blood of a multiple myeloma patient (Goldman-Leikin R E, et al., J Lab Clin Invest. 1980, 13:335-345). Cryopreserved cells were thawed in a 37° C. water bath and cultured in RPMI medium plus 10% Fetal Bovine Serum (FBS) in a tissue culture incubator at 5% CO2. Cells were sent to outside vendors for contaminants and rodent pathogen screening intended to rule out contamination by mycoplasma (by PCR) and/or virus (by MAP test, Mouse Antibody Production). When the cells in culture were enough for implantation, they washed with serum free Hank's balanced salt solution (HBSS). Finally the cells were diluted in HBSS for implantation. […] The implanted mice were monitored for general health and tumor development daily.
Tumors were detectable about two weeks following implantation. Tumor size was measured with a caliper. […]
During each animal study, tumors were measured with calipers, tumor size determined using the above mentioned formula, and tumor size changes in percentage calculated. Mouse body weights were measured with a scale twice per week. […] T/C values were calculated using the following formula: % T/C=100×ΔT/ΔC if ΔT>0. […]
The treatment period was 18 days. Tumor sizes and body weights were measured again on the last day of the study.

The test system of series [2] is DOHH2. The series can be described thus: Cell proliferation assay DOHH2. It counts as cell-based. The conditions noted are these: Homo sapiens, DOHH-2, B-Cell Lymphoma, 72 hours, read-out: IC50 antiproliferative activity. The procedure: (§1) Growth inhibition was accessed by adenosine triphosphate (ATP) content assay using Promega CellTiter-Glo kit. Promega CellTiter-Glo kit is an ATP monitoring system based on firefly luciferase. Briefly, 16 μl of mammalian cell lysis and substrate solution was added to 84 µl of culture medium per well to lyse the cells and stabilize the ATP. The mixture was shaken and incubated for 30 minutes and subsequently the luminescence was measured. IC50 values were calculated using PRISM software (GraphPad Software) with sigmoidal dose-response curve fitting.

Series [3] concerns SW403. The series can be described thus: Cell proliferation assay SW403. It counts as cell-based. The conditions noted are these: Homo sapiens, SW-403, Colon, 72 hours, read-out: IC50 antiproliferative activity. As for the experimental part: as §1
Series [4] deals with WiDr. The series is described as follows: Cell proliferation assay WiDr. The settings on record: Homo sapiens, Colon, 72 hours, read-out: IC50 antiproliferative activity. It counts as cell-based. As for the experimental part:
as §1

Series [5] has as its system MJ. The series is described as follows: Cell proliferation assay MJ. The settings on record: Homo sapiens, T-Cell Lymphoma, 72 hours, read-out: IC50 antiproliferative activity. It counts as cell-based. As for the experimental part:
as §1

Series [6] has as its system Daudi. The series is described as follows: Cell proliferation assay Daudi. The series is classed as cell-based. The conditions noted are these: Homo sapiens, B-Cell Lymphoma, 72 hours, read-out: IC50 antiproliferative activity. As for the experimental part:
as §1

Series [7] deals with MV-4-11. The series can be described thus: Cell proliferation assay MV-4-11. It counts as cell-based. The settings on record: Homo sapiens, MV4-11, AML, 72 hours, read-out: IC50 antiproliferative activity. The procedure:
as §1

Series [8] has as its system HDACs (HeLa cell nuclear extracts). The series is described as follows: HDAC activity assay (Biomol Color de Lys). The series is classed as biochemical. The procedure:
HDAC inhibitory activity was assessed using the Biomol Color de Lys system (AK-500, Biomol, Plymouth Meeting, Pa.). Briefly, HeLa cell nuclear extracts were used as a source of HDACs. Different concentrations of test compounds were serially diluted in dimethylsulfoxide (DMSO) and added to HeLa cell nuclear extracts in the presence of a colorimetric artificial substrate. Final assay condition contained 50 mM Tris/C1, pH 8.0, 137 mM NaCl, 2.7 mM KCl and 1 mM MgCl2. Reactions were carried in room temperature (25° C.) for 1 hour before addition of developer for termination. Relative enzyme activity was measured in the WALLAC Victor II 1420 microplate reader as fluorescence intensity (excitation: 350-380 nm; emission: 440-460 nm). Data were analyzed using GraphPad Prism (v4.0a) with a sigmoidal dose response curve fitting for IC50 calculation.

For series [9], the system named is CaPan2. The series is described as follows: Cell proliferation assay CaPan2. The series is classed as cell-based. The settings on record: Homo sapiens, Capan-2, Pancreas, 72 hours, read-out: IC50 antiproliferative activity. The procedure:
as §1

Series [10] deals with U937. The series can be described thus: Cell proliferation assay U937. It counts as cell-based. The conditions noted are these: Homo sapiens, U-937, AML, 72 hours, read-out: IC50 antiproliferative activity. As for the experimental part:
as §1

Series [11] relates to ARH77. The series is described as follows: Cell proliferation assay ARH77. It counts as cell-based. The conditions noted are these: Homo sapiens, ARH-77, Multiple Myeloma, 72 hours, read-out: IC50 antiproliferative activity. As for the experimental part:
as §1

Series [12] concerns marrow lymphocyte progenitor cells. The series can be described thus: Effect on hematopoietic cells in bone marrow. The series is classed as in vivo, mice. The settings on record: 100 mg/kg orally for five consecutive days. The text has this: Bone marrow was also removed from the mice sacrificed in Example 12. Bone marrow content were collected from the mice long bones and analyzed with flow cytometer. Various markers for progenitor or mature lymphocytes were used.

For series [13], the system named is Calu6. The series is described as follows: Cell proliferation assay Calu6. It counts as cell-based. The settings on record: Homo sapiens, Calu-6, NSCLC, 72 hours, read-out: IC50 antiproliferative activity. As for the experimental part:
as §1

Series [14] deals with glioblastoma xenografts. The settings on record: oral dosage; Folkes et al. 2008; cited from earlier work.

pIC50: −log10 of the molar value. Bounds are passed on as bounds.

Results on two molecules are retold here after patent publication US11654136B2, “Phosphoinositide 3-kinase inhibitor with a zinc binding moiety” (Curis, Inc., priority 2011, dated 2023).

The term pIC50 denotes the IC50 on a negative log10 scale, so that one unit is a factor of ten. In series [1] (day-17, p<0.0001), `COc1ccc(-c2nc(N3CCOCC3)c3sc(CN(C)c4ncc(C(=O)NO)cn4)cc3n2)cn1` [Compound 1, N-hydroxy-2-(((2-(6-methoxypyridin-3-yl)-4-morpholinothieno[3,2-d]pyrimidin-6-yl)methyl)(methyl)amino)pyrimidine-5-carboxamide] had a T/C value of 21.15%. Besides, the “Body weight and side effects” value in series [1] (single agent, 18 days) is “No body weight loss or other side effects were observed”. Further, in [1] (single agent, 18 days), the Tumor growth entry is recorded as “inhibited tumor growth”. In addition, the pIC50 is greater than 8.00 in [2]; greater than 8.00 in [3]; 7.00 to 8.00 in series [4]; greater than 8.00 in [5]; 7.00 to 8.00 in series [6]; greater than 8.00 in series [7]. For the same molecule, the pIC50 in [8] was greater than 7.00; in [9], 7.00 to 8.00; in series [10] it was greater than 8.00; in series [11], greater than 8.00; in series [13], 7.00 to 8.00. Further, the “Marrow lymphocyte progenitor cells” value in series [12] was “induced a compensatory increase in marrow lymphocyte progenitor cells”.

On to `CS(=O)(=O)N1CCN(Cc2cc3nc(-c4cccc5[nH]ncc45)nc(N4CCOCC4)c3s2)CC1` [GDC-0941, reference compound], for which the pIC50 in series [2] is 7.00 to 8.00; in series [3], less than 5.00; in series [4], less than 5.00; in [5], less than 5.00; in series [6], less than 5.00; in series [7], 5.00 to 6.00. In addition, the pIC50 in series [9] is less than 5.00; in series [10] it was 5.00 to 6.00; in series [11] it was less than 5.00; in series [13], less than 5.00. Besides, the Tumor suppression result in [14] is on record as “tumor suppression”.
